Assay results reported in patent US20150133554A1, “PURIFICATION OF DPA ENRICHED OIL” (Omega Protein Corporation, priority 2013, published 2015).
Read-outs that look alike come from different tables or passages of the source.

Key:
THP-1 cells [1] = assay: Cytokine release (TNF-α, MCP-1, IL-6) by LPS-stimulated THP-1 macrophages after fatty acid incubation; assay type: cell-based; conditions: compared to control macrophages; for Inflammatory cytokine release (TNF-α, MCP-1, IL-6): 24 h fatty acid (50 and 100 μM), then 24 h LPS; for Cytokine release with increasing concentration of fatty acids: 50 to 100 μM
Experimental: (§1) THP-1 cells were maintained in RPMI 1640+2 mM L-Glutamine, 10 mM HEPES, 1 mM sodium pyruvate, 4500 mg/L glucose, and 1500 mg/L sodium bicarbonate; supplemented with 3.5 μL/L of 2-mercaptoethanol and 10% fetal bovine serum (FBS). Cell line was maintained in 75 cm^2 filtered cap flasks in a 37° C. incubator with 5% CO2. THP-1 cells were seeded in 24 well plates at 5×10^5 cells/mL using 600 μL/well and allowed to differentiate into macrophages (MΦ) for 72 h with phorbol 12-myristate 13-acetate (PMA) at a final concentration of 50 ng/mL.
Experiment 1: Prior to incubation with individual fatty acids, the cells were starved for 8 h in a 2% lipo-free FBS RPMI medium. Individual fatty acids were added in duplicate into the 24 well plate at two concentrations, 50 μM and 100 μM. Every assay was cultured in three runs with duplicates in each run pooled. After incubation for 24 h with fatty acids the MΦ were scraped off the plates and fatty acids were isolated as described in the ‘Animal Tests’ portion of this Example. The fatty acid profiles of the MΦ were determined as previously described (Wang, et al., 2010, Clin. Nutr., DOI: 10.1016/j.clnu.2013.04.009).
(§2) Experiment 2: Previously differentiated MΦ were incubated with fatty acids as described in ‘Experiment 1’ for 24 hours. At the 24 h time point the cells were then stimulated with lipopolysaccharide from E. coli 0111:B4 for another 24 hours. The plates were centrifuged at 1200×g for 5 minutes and supernatant was then collected and analyzed for cytokines. The MΦ were scraped off the plates and fatty acids were isolated as described in the ‘Animal Portion’. The fatty acid profiles of the MΦ were determined as previously described (Wang, et al., 2010, Clin. Nutr., DOI: 10.1016/j.clnu.2013.04.009).
A linear mixed effects model was used in R, lme in the nlme package, for estimating treatment effects on cytokine production in LPS stimulated THP-1 cells. The fixed effects fit were treatment, FA concentration, and when significant LPS concentration was fit as a covariate, the plate cells were cultured on nested within run was fit as a random effect. Least squares means were analyzed as outlined above and pairwise comparisons were made between treatments for FA concentration, or where significant LPS concentration.
The objective of this study was to determine if docosapentaenoic acid n-3 (DPAn3) enrichment of macrophages (MΦ) changed their inflammatory response relative to saturated (S), mono-unsaturated (MU), and other poly-unsaturated (PU) fatty acids (FA). Differentiated THP-1 cells were incubated with one of 11 FA (50 and 100 μM) of varying degrees of unsaturation or no FA for 24 h prior to 24 h of stimulation with lipopolysaccharide from E. coli. Fatty acids were collected from MΦ without stimulation to determine the fatty acid profiles. Media was collected from MΦ post-stimulation and probed for prostaglandin E2, and cytokines, including tumor necrosis factor-α, monocyte chemoattractant protein-1, and interleukin-6. Prostaglandin E2 production was greater (P<0.05) for AA than all other FA, and omega-3 PUFA decreased (P<0.01) PGE2 compared to n6 PUFA and all other FA.

THP-1 cells [2] = assay: Prostaglandin E2 production by LPS-stimulated THP-1 macrophages after fatty acid incubation; assay type: cell-based; conditions: 24 h fatty acid (50 and 100 μM), then 24 h LPS; compared to other FA
Experimental: as §1, §2
The objective of this study was to determine if docosapentaenoic acid n-3 (DPAn3) enrichment of macrophages (MΦ) changed their inflammatory response relative to saturated (S), mono-unsaturated (MU), and other poly-unsaturated (PU) fatty acids (FA). […]

[3] = tested on: murine peritoneal macrophages; conditions: cited from earlier work
LDLr−/− mice [4] = assay: Lipid and cholesterol (TC, FC, CE) in aortas of LDLr−/− mice fed an atherogenic diet; assay type: in vivo; conditions: supplement 0.76% w/w of the diet
Source text: (§3) 48 male LDLr−/− mice (8-10 weeks of age, ˜20 g) were obtained from Jackson Laboratories (stock #2207) and allowed to acclimate to the cages, room, and feeding design for 12 days. After the acclimation period mice were weighed and randomly assigned to one of six treatments. Mice were fed an isolipid (20% total fatty acids w/w), isonitrogenous, and 0.2% cholesterol (w/w) diet, which is considered atherogenic (Ain76, 58TQ TestDiet®) as a base diet. This base diet was formulated to meet or exceed all nutrient and energy requirements for a growing mouse. The treatments were added to the base diet (0.76% w/w of the total diet) and was made once at the beginning of the study, separated into weekly aliquots, stored at −80° C., allowed to thaw at 4° C. for 2 days prior to feeding, and stored at 4° C. until fed. A sample from each weekly aliquot was collected, composited, and archived for fatty acid analysis at a later date. […]
(§4) Mouse body weights were recorded once weekly in conjunction with cage changes. Blood serum lipid profiles were analyzed on blood samples from the mice before (subset of 6 mice), 10 weeks, and 20 weeks relative to initiation of dietary treatments. […] Total lipid content was measured using the procedure outline by Folch, et al. (1957) J. Biol. Chem., 226:497-509, prior to cholesterol assessment. Total cholesterol, free cholesterol, and cholesterol ester were quantified as previously described (Wang, et al., 2010, Clin. Nutr., DOI: 10.1016/j.clnu.2013.04.009).
An analysis of variance model was used in R, aov in the stats package, for estimating treatment effects on cholesterol deposition in mouse aortas. Least squares means and contrasts were analyzed as outlined above. […]

LDLr−/− mice [5] = assay: Serum lipid profile of LDLr−/− mice fed an atherogenic diet; assay type: in vivo; conditions: week 20
Source text: (§5) 48 male LDLr−/− mice (8-10 weeks of age, ˜20 g) were obtained from Jackson Laboratories (stock #2207) and allowed to acclimate to the cages, room, and feeding design for 12 days. After the acclimation period mice were weighed and randomly assigned to one of six treatments. Mice were fed an isolipid (20% total fatty acids w/w), isonitrogenous, and 0.2% cholesterol (w/w) diet, which is considered atherogenic (Ain76, 58TQ TestDiet®) as a base diet. This base diet was formulated to meet or exceed all nutrient and energy requirements for a growing mouse. The treatments were added to the base diet (0.76% w/w of the total diet) and was made once at the beginning of the study, separated into weekly aliquots, stored at −80° C., allowed to thaw at 4° C. for 2 days prior to feeding, and stored at 4° C. until fed. A sample from each weekly aliquot was collected, composited, and archived for fatty acid analysis at a later date. The treatments were as follows: (1) Negative control diet, 3.5% of the total fatty acids were replaced with milk fat (the only source of fat in the base diet), (2) 3.5% of the total fatty acids were replaced with purified ethyl esters of DHA, (3) 3.5% of the total fatty acids were replaced with purified ethyl esters of DPAn3, (4) 3.5% of the total fatty acids were replaced with purified ethyl esters of EPA, (5) 3.5% of the total fatty acids were replaced with omega-3 fatty acids from Lovaza® (GlaxoSmithKline), and (6) 3.5% of the total fatty acids were replaced with omega-3 fatty acids from ΩmegaActiv® DPA 5000 (Omega Protein Inc., Houston, Tex.; Table 1).
Mouse body weights were recorded once weekly in conjunction with cage changes. Blood serum lipid profiles were analyzed on blood samples from the mice before (subset of 6 mice), 10 weeks, and 20 weeks relative to initiation of dietary treatments. Three to five days prior to the end of the study each mouse was administered an intraperitoneal injection of 1.0 mL thioglycollate broth (4.05 g/dL) to elicit peritoneal macrophages. The peritoneal cells centrifuged then cultured in RPMI 1640 (+2 mM L-glutamine, +10 mM HEPES, +1 mM sodium pyruvate, +4500 mg/L glucose, +1500 mg/L sodium bicarbonate) on tissue culture plates (size) which allowed for adhesion of the macrophages. Plates where then vigorously washed to ensure proper macrophage isolation. Macrophages were scraped off the plates and aliquotted into a glass tube for fatty acid extraction, which was then performed via a modified Folch method. The heart and aorta were isolated from each mouse and immediately frozen in liquid nitrogen for later dissection. Aortic arches were dissected from the aortic root to the abdominal aorta using a microscope. Total lipid content was measured using the procedure outline by Folch, et al. (1957) J. Biol. Chem., 226:497-509, prior to cholesterol assessment. Total cholesterol, free cholesterol, and cholesterol ester were quantified as previously described (Wang, et al., 2010, Clin. Nutr., DOI: 10.1016/j.clnu.2013.04.009).
Average daily feed intake for the mice was cut into quartiles in order to assign a feed consumption class. A linear mixed effects model was used in R, lme in the nlme package, for estimating treatment effects on blood lipid profiles in mice. The fixed effects fit were treatment, and week of study, animal nested within treatment was fit as a random effect. Least squares means were calculated using the lsmeans package for all blood lipid profiles and a general linear hypothesis test, using glht in the multcomp package, was utilized for specified contrasts, control vs. the average of all omega-3 containing diets. Because Lovaza® is composed of high and almost equal levels of EPA and DHA we also contrasted the diet supplemented with Lovaza® to the average of the diets supplemented with EPA and DHA alone. Pairwise comparisons were made between time of blood analysis, and between treatments at each individual time frame.

LDLr−/− mice [6] = assay: Serum glucose of LDLr−/− mice fed an atherogenic diet; assay type: in vivo; conditions: week 20
Source text: as §3, §4
Average daily feed intake for the mice was cut into quartiles in order to assign a feed consumption class. […] Least squares means were calculated using the lsmeans package for all blood lipid profiles and a general linear hypothesis test, using glht in the multcomp package, was utilized for specified contrasts, control vs. the average of all omega-3 containing diets. […]

TNF-α [7] = assay: TNF-α concentration in adipose tissue of mice fed omega-3 products; assay type: in vivo
Source text: as §5
TNF-α concentration in adipose tissue of mice fed with different omega-3 products

IL-8 [8] = assay: Fluorescence intensity (relative) of brain microvessel, IL-8; assay type: in vivo, mice; conditions: control = 1.00
Source text: as §5, with “1). […]” for “1).”

MCP-1 = assay: Fluorescence intensity (relative) of brain microvessel, MCP-1; assay type: in vivo, mice; conditions: control = 1.00
Source text: as §5, with “1). […]” for “1).”

IL-8 [9] = assay: Fluorescence intensity (relative) of brain hippocampus, IL-8; assay type: in vivo, mice; conditions: control = 1
Source text: as §5, with “1). […]” for “1).”

TIMP2 = assay: Fluorescence intensity (relative) of brain hippocampus, TIMP2; assay type: in vivo, mice; conditions: control = 1
Source text: as §5, with “1). […]” for “1).”

TNF-α [10] = assay: Fluorescence intensity (relative) of brain hippocampus, TNF-α; assay type: in vivo, mice; conditions: control = 1
Source text: as §5, with “1). […]” for “1).”

Compound	Inflammatory cytokine release (TNF-α, MCP-1, IL-6) (THP-1 cells [1])	Prostaglandin E2 production (THP-1 cells [2])	TNF-α production ([3]; AA at 2-5 μM)	TNF-α production ([3]; AA at concentrations as low as 1 μM)	Cytokine release with increasing concentration of fatty acids (THP-1 cells [1])	Aorta lipid (LDLr−/− mice [4])	Serum LDL cholesterol (LDLr−/− mice [5])	Serum total cholesterol (LDLr−/− mice [5])	Glucose concentration in serum (LDLr−/− mice [6])	TNF-α Concentration (TNF-α [7])	IL-8 fluorescence intensity (relative) (IL-8 [8])	MCP-1 fluorescence intensity (relative) (MCP-1)	IL-8 fluorescence intensity (relative) (IL-8 [9])	TIMP2 fluorescence intensity (relative) (TIMP2)	TNF-α fluorescence intensity (relative) (TNF-α [10])
CCCCC/C=C\C/C=C\C/C=C\C/C=C\CCCC(=O)O [AA, arachidonic acid]	decreased	greater	completely inhibited	decreased	–	–	–	–	–	–	–	–	–	–	–
CCCCCCCCCCCCCCCC(=O)O [C16:0]	did not change	–	–	–	did not change, or increased	–	–	–	–	–	–	–	–	–	–
CCCCCCCCCCCCCCCCCC(=O)O [C18:0]	did not change	–	–	–	did not change, or increased	–	–	–	–	–	–	–	–	–	–
CC/C=C\C/C=C\C/C=C\C/C=C\C/C=C\C/C=C\CCC(=O)O [DHA, docosahexaenoic acid]	–	–	–	–	–	36.38%	495.51 mg/dL	726.86 mg/dL	172.58 mg/dL	0.82 pg/μg protein	0.86	0.93	0.46	0.23	0.29
CC/C=C\C/C=C\C/C=C\C/C=C\C/C=C\CCCCCC(=O)O [DPA, docosapentaenoic acid]	–	–	–	–	–	29.52%	563.45 mg/dL	692.98 mg/dL	166.23 mg/dL	0.41 pg/μg protein	0.96	0.92	0.70	0.17	0.28
CC/C=C\C/C=C\C/C=C\C/C=C\C/C=C\CCCC(=O)O [EPA, eicosapentaenoic acid]	–	–	–	–	–	29.93%	562.07 mg/dL	663.37 mg/dL	198.65 mg/dL	0.58 pg/μg protein	0.93	0.96	0.72	0.63	0.31
CCCCCCCC/C=C\CCCCCCCC(=O)O [oleic acid]	did not change	–	–	–	did not change, or increased	–	–	–	–	–	–	–	–	–	–
